Values quoted from earlier work as cited in patent publication US20050042177A1, “Novel compositions of sildenafil free base” (Elan Pharma International Ltd., priority 2003, published 2005).

What was measured:
[1] = tested on: PDE6; settings: PDE5 versus PDE6
[2] = 100 mg oral dose, healthy adult males

Row | Compound | Tmax [2] [h] | mean Cmax [2] [ng/mL] | t1/2 [2] | absolute bioavailability (in vivo) [%] | potency for PDE5 as compared to PDE6 [1]
1 | CCCc1nn(C)c2c(=O)[nH]c(-c3cc(S(=O)(=O)N4CCN(C)CC4)ccc3OCC)nc12.O=C(O)CC(O)(CC(=O)O)C(=O)O [Sildenafil citrate, 1-[[3-(6,7-dihydro-1-methyl-7-oxo-3-propyl-1H-pyrazolo[4,3-d]pyrimidin-5-yl)-4-ethoxyphenyl]sulfonyl]-4 methylpiperazine citrate] | 1 | 440 | about 4 hours | 40 | –
2 | CCCc1nn(C)c2c(=O)[nH]c(-c3cc(S(=O)(=O)N4CCN(C)CC4)ccc3OCC)nc12 [Sildenafil, 1-[[3-(6,7-dihydro-1-methyl-7-oxo-3-propyl-1H-pyrazolo[4,3-d]pyrimidin-5-yl)-4-ethoxyphenyl]sulfonyl]-4-methylpiperazine] | – | – | – | – | approximately 10 fold
